# According to patent US20230321122A1, “ACTIVE AGENT MODULATING THE ACTIVITY OF AN ION CHANNEL FOR USE IN HAIR GROWTH REGULATION” (CUTANEON - Skin & Hair Innovations GmbH, priority 2020, published 2023):
# Assays:
# human hair follicles [1] = experiment: Quantitative PCR gene expression in compound-treated human hair follicles; type: cell-based; settings: 6 hours, vs vehicle
# Method: Total RNA was isolated using PICOPURE® RNA Isolation Kit (Applied BioSystems) according to the manufacturer's protocol. After isolation, 100 ng of total RNA was reverse-transcribed into cDNA using a TETRO® cDNA synthesis kit (Bioline). Quantitative-PCR was performed using the StepOne Plus real time PCR system (Applied Biosystems) using TAQMAN® fast advanced master mix and TAQMAN® probes for LEF1, IGF1, TGFB2 AND SFRP1 (Applied Biosystems). The amount of the aforementioned transcripts was normalized to the expression of reference gene (GAPDH) using the ΔΔCt method. Results were performed in triplicate for each experiment.
# For gene expression analysis, human hair follicles were microdissected as above and treated with 2-Hep (12.5 uM) for 6 hours. Following the treatment, total RNA was isolated and processed for cDNA synthesis as above. Quantitate PCR was performed using TAQMAN® assay with probes for TGFB2 and AXIN2 (Applied Biosystems).
# For gene expression analysis, human hair follicles were microdissected as above and treated with TPPO (150 uM) for 6 hours. Following the treatment, total RNA was isolated and processed for cDNA synthesis as above. Quantitate PCR was performed using TAQMAN® assay with probes for IGF1, FGF7 and TGFB2 (Applied Biosystems).
# human hair follicles [2] = experiment: Human hair follicle organ culture, hair cycle staging; type: cell-based; settings: for hair cycle stage of hair follicles (anagen) vs vehicle: 12.5 (unit not given), day 3 and day 6, FIGS. 8, 9
# Method: Human anagen hair follicles were isolated from the skin of males undergoing hair transplantation with written informed consent. Microdissected hair follicles were amputated at the level of dermal-subcutaneous junction and equilibrated in Williams' E medium (WEM) (Life Technologies) supplemented with 2 mM L-glutamine (Life Technologies), 10 ng/ml hydrocortisone, 10 μg/ml insulin, and antibiotics (all from Sigma-Aldrich). After 24 hours, growing undamaged anagen hair follicles were selected for treatment with DMP Human hair follicles were cultured in presence of DMP (12.5 The culture medium was changed every two days with addition of DMP. Hair follicles were photographed and percentage of hair follicles at different stages of hair cycle were calculated at day 3 and day 6 of the treatment and compared to vehicle.
# (§1) Human anagen hair follicles were isolated from the skin of males undergoing hair transplantation with written informed consent. […] After 24 hours, growing undamaged anagen hair follicles were selected for treatment with 2-Hep (12.5 The culture medium was changed every two days with addition of 2-Hep. Hair follicles were photographed and percentage of hair follicles at different stages of hair cycle were calculated at day 3 and day 6 of the treatment and compared to vehicle.
# as §1, with “human hair follicles were cultured in presence of TPPO (150” for “2-Hep (12.5”, “TPPO.” for “2-Hep.”
Compound,"expression of AXIN2 (human hair follicles [1]; 12.5 uM, FIG. 10)","expression of TGFB2 (human hair follicles [1]; 12.5 uM, FIG. 10)",hair cycle stage of hair follicles (anagen) vs vehicle (human hair follicles [2]),"TGFB2 transcript (human hair follicles [1]; 150 uM, FIG. 12)","expression level of FGF7 (human hair follicles [1]; 150 uM, FIG. 12)","expression level of IGF1 (human hair follicles [1]; 150 uM, FIG. 12)","hair cycle stage of hair follicles (catagen) vs vehicle (human hair follicles [2]; 150 (unit not given), day 3 and day 6, FIG. 11)"
"CCCCCC(C)=O [2-Hep, 2-heptanone]",up-regulated,down-regulated,prolongs anagen,,,,
"Cc1cnc(C)cn1 [DMP, 2,5-dimethylpyrazine]",,,prolongs anagen,,,,
"O=P(c1ccccc1)(c1ccccc1)c1ccccc1 [TPPO, triphenylphosphine oxide]",,,,up-regulated,significantly down-regulated,significantly down-regulated,promotes catagen
